pKd: −log10 of the molar value. ≈ marks a conversion by molar mass, not a printed value. Calls of active or inactive are those of the source. The calls are words filed in the database; no cut-off is given here. Numbered stars: 1 amine (or outer) side, 2 acyl side, 3 side chain; on linkers, the order of the positions; unused ones are H or OH. Bridge positions count the residues as written; N and C are the ends. Square brackets hold non-standard residues; d marks the D form. Peptide text beside a SMILES is read from it. I, II: the chains in the order shown. X1 = O=C1CC([*:2])C(=O)N1CCCCCC(=O)[*:1]; Dab = NCC[C@H](N)C(=O)O
How the values were obtained:
[1] = tested on: Staphylococcus aureus; experiment: Antibacterial activity against Staphylococcus aureus ATCC 6538p assessed as inhibition of bacterial growth incubated for 18 to 24 hrs; type: functional; conditions: time 18-24 hrs
[2] = tested on: Staphylococcus aureus; experiment: Bactericidal activity against Staphylococcus aureus ATCC 6538p assessed as inhibition of bacterial growth incubated for 18 to 24 hrs; type: functional; conditions: time 18-24 hrs
[3] = tested on: Staphylococcus aureus; experiment: Antibacterial activity against Staphylococcus aureus ATCC 12600 assessed as inhibition of bacterial growth incubated for 18 to 24 hrs; type: functional; conditions: time 18-24 hrs
[4] = tested on: Staphylococcus aureus; experiment: Bactericidal activity against Staphylococcus aureus ATCC 12600 assessed as inhibition of bacterial growth incubated for 18 to 24 hrs; type: functional; conditions: time 18-24 hrs
[5] = tested on: Staphylococcus aureus; experiment: Antibacterial activity against Staphylococcus aureus ATCC 43300 assessed as inhibition of bacterial growth incubated for 18 to 24 hrs; type: functional; conditions: time 18-24 hrs
[6] = tested on: Staphylococcus epidermidis; experiment: Bactericidal activity against Staphylococcus epidermidis ATCC 12228 assessed as inhibition of bacterial growth incubated for 18 to 24 hrs; type: functional; conditions: time 18-24 hrs
[7] = tested on: Streptococcus pneumoniae; experiment: Antibacterial activity against Streptococcus pneumoniae ATCC 49619 assessed as inhibition of bacterial growth incubated for 18 to 24 hrs; type: functional; conditions: time 18-24 hrs
[8] = tested on: Staphylococcus saprophyticus; experiment: Antibacterial activity against Staphylococcus saprophyticus ATCC BAA-750 assessed as inhibition of bacterial growth incubated for 18 to 24 hrs; type: functional; conditions: time 18-24 hrs
[9] = tested on: Staphylococcus saprophyticus; experiment: Bactericidal activity against Staphylococcus saprophyticus ATCC BAA-750 assessed as inhibition of bacterial growth incubated for 18 to 24 hrs; type: functional; conditions: time 18-24 hrs
[10] = tested on: Streptococcus mutans; experiment: Antibacterial activity against Streptococcus mutans UA159 assessed as inhibition of bacterial growth incubated for 18 to 24 hrs; type: functional; conditions: time 18-24 hrs
[11] = tested on: Streptococcus mutans; experiment: Bactericidal activity against Streptococcus mutans UA159 assessed as inhibition of bacterial growth incubated for 18 to 24 hrs; type: functional; conditions: time 18-24 hrs
[12] = tested on: Streptococcus mutans; experiment: Bactericidal activity against Streptococcus mutans ATCC 25175 assessed as inhibition of bacterial growth incubated for 18 to 24 hrs; type: functional; conditions: time 18-24 hrs
[13] = tested on: Escherichia coli; experiment: Bactericidal activity against Escherichia coli ATCC 25922 assessed as inhibition of bacterial growth incubated for 18 to 24 hrs; type: functional; conditions: time 18-24 hrs
[14] = tested on: RAW264.7; experiment: Cytotoxicity against mouse RAW264.7 cells assessed as cell viability incubated for 48 hrs by MTT assay; type: functional
[15] = Binding affinity to AgrC-I extra-loop-I (unknown origin) assessed as dissociation constant incubated for 10 mins by isothermal titration calorimetry analysis
[16] = Binding affinity to AgrC-I extra-loop-III (unknown origin) assessed as dissociation constant incubated for 10 mins by isothermal titration calorimetry analysis
[17] = Binding affinity to AgrC-I extra-loop-I (unknown origin) assessed as change in enthalpy incubated for 10 mins by isothermal titration calorimetry analysis
[18] = Binding affinity to AgrC-I extra-loop-III (unknown origin) assessed as change in enthalpy incubated for 10 mins by isothermal titration calorimetry analysis
[19] = species: Homo sapiens; experiment: Binding affinity to AgrC-I extra-loop-I (unknown origin) assessed as gibbs free energy change incubated for 10 mins by isothermal titration calorimetry analysis
[20] = species: Homo sapiens; experiment: Binding affinity to AgrC-I extra-loop-II (unknown origin) assessed as gibbs free energy change incubated for 10 mins by isothermal titration calorimetry analysis
[21] = species: Homo sapiens; experiment: Binding affinity to AgrC-I extra-loop-III (unknown origin) assessed as gibbs free energy change incubated for 10 mins by isothermal titration calorimetry analysis
[22] = species: Homo sapiens; experiment: Binding affinity to AgrC-I extra-loop-I (unknown origin) assessed as change in entropy incubated for 10 mins by isothermal titration calorimetry analysis
[23] = species: Homo sapiens; experiment: Binding affinity to AgrC-I extra-loop-II (unknown origin) assessed as change in entropy incubated for 10 mins by isothermal titration calorimetry analysis
[24] = Inhibition of quorum sensing system in Staphylococcus aureus ATCC 6538p assessed as downregulation of RNAIII expression level at 0.78 uM incubated for 24 hrs by qRT-PCR analysis
[25] = Inhibition of quorum sensing system in Staphylococcus epidermidis ATCC 12228 assessed as downregulation of RNAIII expression level at 0.78 uM incubated for 24 hrs by qRT-PCR analysis
[26] = Inhibition of quorum sensing system in Staphylococcus saprophyticus ATCC BAA-750 assessed as downregulation of RNAIII expression level at 0.78 uM incubated for 24 hrs by qRT-PCR analysis
[27] = tested on: Staphylococcus aureus; experiment: Antivirulence activity against Staphylococcus aureus assessed as downregulation of RNAIII expression level at 1 to 100 uM incubated for 24 hrs by qRT-PCR analysis; type: functional, organism-based; conditions: dose 1-100 µM
[28] = tested on: Staphylococcus aureus; experiment: Antivirulence activity against Staphylococcus aureus assessed as downregulation of psm-alpha expression level at 1 to 100 uM incubated for 24 hrs by qRT-PCR analysis; type: functional, organism-based; conditions: dose 1-100 µM
[29] = tested on: Erythrocyte; experiment: Hemolytic activity in rat RBC assessed as hemolysis measured after 20 hrs; type: toxicity, cell-based
[30] = tested on: Staphylococcus aureus; experiment: Antivirulence activity against Staphylococcus aureus ATCC 6538p assessed as downregulation of RNAIII expression level at 2.5 uM measured for 28 passages by qRT-PCR analysis; type: functional, organism-based
[31] = tested on: Staphylococcus aureus; experiment: Antibacterial activity against Staphylococcus aureus assessed as reduction in bacterial growth at 6.25 uM measured at 20 mins by time kill assay; type: functional, organism-based
[32] = tested on: Staphylococcus epidermidis; experiment: Antibacterial activity against Staphylococcus epidermidis assessed as reduction in bacterial growth at 6.25 uM measured at 20 mins by time kill assay; type: functional, organism-based
[33] = tested on: Staphylococcus saprophyticus; experiment: Antibacterial activity against Staphylococcus saprophyticus assessed as reduction in bacterial growth at 6.25 uM measured at 20 mins by time kill assay; type: functional, organism-based
[34] = tested on: Streptococcus pneumoniae; experiment: Antibacterial activity against Streptococcus pneumoniae assessed as reduction in bacterial growth at 6.25 uM measured at 20 mins by time kill assay; type: functional, organism-based
[35] = tested on: Staphylococcus aureus; experiment: Inhibition of biofilm formation in Staphylococcus aureus at 0.39 uM incubated for 24 hrs by crystal violet staining based analysis; type: functional, organism-based
[36] = tested on: Staphylococcus aureus; experiment: Inhibition of biofilm formation in Staphylococcus aureus incubated for 24 hrs by crystal violet staining based microscopic analysis; type: functional, organism-based
[37] = tested on: Cell membrane; experiment: Induction of cell membrane damage in Staphylococcus aureus ATCC 6538p assessed as increase in nucleic acid leakage measured up to 30 mins by UV-spectrophotometer analysis; type: subcellular
[38] = tested on: Cell membrane; experiment: Induction of cell membrane damage in Staphylococcus aureus ATCC 6538p assessed as increase in fluorescent intensity incubated for 30 mins by PI staining based flow cytometry assay
[39] = Toxicity in Kunming mouse infected with Staphylococcus aureus ATCC 6538p assessed as animal survival rate 45 mg/kg, ip pre-infected with bacteria for 1 hr followed by compound administration and measured after 7 days; type: organism-based; conditions: in vivo, 168 h, time 7 day
[40] = Toxicity in Kunming mouse infected with Staphylococcus aureus ATCC 6538p assessed as weight loss 15 to 45 mg/kg, ip pre-infected with bacteria for 1 hr followed by compound administration and measured after 3 days; type: organism-based; conditions: in vivo, 72 h, dose 15-45 mg/kg, time 3 day
[41] = Toxicity in Kunming mouse infected with Staphylococcus aureus ATCC 6538p assessed as body weight gain 15 to 45 mg/kg, ip pre-infected with bacteria for 1 hr followed by compound administration and measured after 5 days; type: organism-based; conditions: in vivo, 120 h, dose 15-45 mg/kg, time 5 day

Compound `CC[C@H](C)[C@H](NC(=O)CNC(=O)CNC(=O)[C@@H](N)CSC1CC(=O)N(CCCCCC(=O)NCC(=O)N[C@H](C(=O)N[C@@H](CCCCN)C(=O)N[C@@H](CC(N)=O)C(=O)N[C@@H](CC(C)C)C(=O)N[C@@H](Cc2c[nH]c3ccccc23)C(=O)N[C@@H](CCCCN)C(=O)N[C@@H](CCCCN)C(=O)N[C@@H](CCSC)C(=O)N[C@H](C(=O)N[C@@H](CCCCN)C(=O)N[C@@H](CC(C)C)C(=O)N[C@@H](Cc2c[nH]c3ccccc23)C(=O)N[C@@H](Cc2ccc(O)cc2)C(=O)O)[C@@H](C)CC)[C@@H](C)CC)C1=O)C(=O)N[C@@H](CC(N)=O)C(=O)N[C@H]1CCNC(=O)[C@H](CC(C)C)NC(=O)[C@H](CC(C)C)NC(=O)[C@H](Cc2ccccc2)NC(=O)[C@H](C)NC1=O` (stereo partly specified) (I: GIKNLWKKMIKLWY-OH / II: H-CGGIN[Dab]AFLL; linker I:N-II:1 via X1; lactam II:6-II:C) has an MIC [1] of 3.13 µM (≈ 9.4 µg/mL), an MBC [2] of 3.13 µM (≈ 9.4 µg/mL) and an MIC [3] of 3.13 µM (≈ 9.4 µg/mL). The MBC [4] was 3.13 µM (≈ 9.4 µg/mL), the MIC [5] was 6.25 µM (≈ 18.8 µg/mL) and the MBC [6] was 3.13 µM (≈ 9.4 µg/mL). It also gave an MIC [7] of 6.25 µM (≈ 18.8 µg/mL), an MIC [8] of 3.13 µM (≈ 9.4 µg/mL) and an MBC [9] of 3.13 µM (≈ 9.4 µg/mL). It also gave an MIC [10] of 6.25 µM (≈ 18.8 µg/mL), an MBC [11] of 6.25 µM (≈ 18.8 µg/mL) and an MBC [12] of 3.13 µM (≈ 9.4 µg/mL). It also gave an MBC [13] of 12.5 µM (≈ 37.5 µg/mL), a CC50 [14] of 71100 nM and a pKd [15] of 12.00. The pKd [16] was 12.00, the deltaH [17] was -4.7 kcal/mol and the deltaH [18] was “inactive”. The deltaG [19] was -16.4 kcal/mol, the deltaG [20] was -16.4 kcal/mol and the deltaG [21] was -16.4 kcal/mol. For the same compound, the -TdeltaS [22] was -11.7 kcal/mol, the -TdeltaS [23] was 16.4 kcal/mol and the inhibition [24] was “Active”. For the same compound, the inhibition [25] was “inactive”, the inhibition [26] was “inactive” and the Activity [27] was “Active”. The Activity [28] was “Active”, the Activity [29] was “Toxic” and the Activity [30] was “Active”. The Activity [31] was “Active”, the Activity [32] was “inactive” and the Activity [33] was “inactive”. The Activity [34] was “inactive”, the inhibition [35] was “Active” and the inhibition [36] was “Active”. For the same compound, the Activity [37] was “Active”, the Activity [38] was “Active” and the Activity [39] was 50%. For the same compound, the Activity [40] was “Non-Toxic” and the Activity [41] was “Non-Toxic”.
